Drawing on patent US20180325889A1, “IMMUNOREGULATORY AGENTS” (FLEXUS BIOSCIENCES, INC., priority 2014, published 2018), this text covers IC50 for 15 molecules.

A word on the IC50: it is the concentration that gives 50% inhibition.

The target in this assay is T1, human IDO1/HEK293 cells (Homo sapiens, UniProt P14902).
T1 construct: expressed in transfected cells
T1 sequence (P14902 whole entry): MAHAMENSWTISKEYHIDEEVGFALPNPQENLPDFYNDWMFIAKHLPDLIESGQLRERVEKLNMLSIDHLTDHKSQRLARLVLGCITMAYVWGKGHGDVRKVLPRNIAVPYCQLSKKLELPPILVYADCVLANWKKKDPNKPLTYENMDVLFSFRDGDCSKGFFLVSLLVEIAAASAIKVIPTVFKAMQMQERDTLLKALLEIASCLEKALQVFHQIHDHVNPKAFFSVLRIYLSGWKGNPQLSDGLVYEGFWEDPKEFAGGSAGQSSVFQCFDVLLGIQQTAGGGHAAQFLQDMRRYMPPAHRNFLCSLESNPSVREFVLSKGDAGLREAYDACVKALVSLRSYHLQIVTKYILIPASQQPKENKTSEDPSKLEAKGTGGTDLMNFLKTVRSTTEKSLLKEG
The assay can be described thus: HEK Human IDO-1 cell-based IDO inhibition assay (kynurenine production). As to conditions: HEK293 cells stably expressing human IDO1, 20 hours incubation, absorbance at 490 nm; read-out: HEK Human IDO-1 Bio Activity (IDO IC50). On the procedure:
They were cultured in medium (DMEM with 10% FBS) containing 1 mg/ml G418 for two weeks.
The human IDO1/HEK293 cells were seeded at 10,000 cells per 50 μL per well with RPMI/phenol red free media contains 10% FBS in a 384-well black wall clear bottom tissue culture plate (Matrix Technologies LLC) 100 nL of certain concentration of compound was then added to each well using ECHO liquid handling systems. The cells were incubated for 20 hours in 37° C. incubator with 5% CO2.
The compound treatments were stopped by adding trichloroacetic acid (Sigma-Aldrich) to a final concentration at 0.2%. The cell plate was further incubated at 50° C. for 30 minute. The equal volume supernatant (20 μL) and 0.2% (w/v) Ehrlich reagent (4-dimethylaminobenzaldehyde, Sigma-Aldrich) in glacial acetic acid were mixed in a new clear bottom 384-well plate. This plate was then incubated at room temperature for 30 minute. The absorbance at 490 nm was measured on Envision plate reader.
For the molecule `C[C@@H](NC(=O)c1ccc(-c2ccccc2)cc1)[C@H]1CC[C@@H](c2ccnc3ccc(F)cc32)CC1` [Example 70, N—((R)-1-((1s,4S)-4-(6-fluoroquinolin-4-yl)cyclohexyl)ethyl)-[1,1′-biphenyl]-4-carboxamide], the IC50 is below 50 nM. With `CCC(NC(=O)c1ccc(Cl)cc1)C1CCC(c2ccnc3ccc(F)cc23)CC1` (single isomer, unassigned) [Example 164c, 4-Chloro-N-(1-(4-(6-fluoroquinolin-4-yl)cyclohexyl)propyl)benzamide], the 50% inhibitory concentration (IC50) is below 50 nM. For the molecule `C[C@@H](NC(=O)c1ccccc1F)[C@H]1CC[C@@H](c2ccnc3ccc(F)cc32)CC1` [Example 54, 2-fluoro-N-((R)-1-((1s,4S)-4-(6-fluoroquinolin-4-yl)cyclohexyl)ethyl)benzamide], the IC50 is below 50 nM. `Cc1cc(C2CCC(C(C)NC(=O)c3ccc(Cl)cc3)CC2)ccn1` (single isomer, unassigned) [Example 157c, 4-Chloro-N-(1-(4-(2-methylpyridin-4-yl)cyclohexyl)ethyl) Benzamide]: the IC50 is below 2000 nM. As for `Fc1ccc2nccc([C@H]3CC[C@H](NCc4ccccc4)CC3)c2c1` [Example 130, trans-N-Benzyl-4-(6-fluoroquinolin-4-yl)cyclohexanamine], the IC50 is below 250 nM. As for `Cc1cccc(C(=O)N[C@H](C)[C@H]2CC[C@@H](c3ccnc4ccc(F)cc43)CC2)c1` [Example 50, N-((R)-1-((1s,4S)-4-(6-fluoroquinolin-4-yl)cyclohexyl)ethyl)-3-methyl benzamide], the IC50 was below 50 nM.

In the case of `C[C@@H](NC(=O)c1ccc(-c2nnco2)cc1)[C@H]1CC[C@@H](c2ccnc3ccc(F)cc32)CC1` [Example 244, N-((R)-1-((1s,4S)-4-(6-fluoroquinolin-4-yl)cyclohexyl)ethyl)-4-(1,3,4-oxadiazol-2-yl)benzamide], the IC50 was below 50 nM. With `CC1(CNC(=O)c2ccc(Cl)cc2)CCN(c2ccnc(C(F)(F)F)c2)CC1` [Example 227, 4-Chloro-N-((4-methyl-1-(2-(trifluoromethyl)pyridin-4-yl)piperidin-4-yl)methyl)benzamide] the figure was below 2000 nM; with `O=C(Nc1ccc(Cl)cc1F)N[C@H]1CC[C@H](c2ccnc3ccc(F)cc32)CC1` [Example 120, 1-(4-chloro-2-fluorophenyl)-3-(trans-4-(6-fluoroquinolin-4-yl)cyclohexyl)urea], below 50 nM; with `C[C@@H](NS(=O)(=O)c1ccc(Cl)cc1)[C@H]1CC[C@@H](c2ccnc3ccc(F)cc32)CC1` [Example 43, 4-chloro-N-((R)-1-((1s,4S)-4-(6-fluoroquinolin-4-yl)cyclohcxyl)ethyl)benzenesulfonamide], below 2000 nM. As for `Cc1ccc(NC(=O)NC2CCN(c3ccnc4ccc(F)cc34)CC2)cc1` [Example 91, 1-(1-(6-Fluoroquinolin-4-yl)piperidin-4-yl)-3-(p-tolyl)urea], the IC50 was below 250 nM. In the case of `CC(NC(=O)c1ccc(Cl)cc1)C1CCC(c2ccnc(C(F)(F)F)c2)CC1` (single isomer, unassigned) [Example 215, 4-chloro-N-(1-(4-(2-(trifluoromcthyl)pyridin-4-yl)cyclohcxyl)ethyl)benzamide], the IC50 is below 2000 nM. As for `O=C(Cc1ccc(Cl)cc1)N[C@H]1CC[C@@H](c2ccnc3ccc(F)cc32)CC1` [Example 147, 2-(4-chlorophenyl)-N-(cis-4-(6-fluoroquinolin-4-yl)cyclohexyl)acetamide], the IC50 is below 2000 nM. With `CC(NC(=O)c1ccc(Cl)cc1)C1CCC(c2ccnc3ccnn23)CC1` (stereo not drawn) [Example 197, 4-chloro-N-(1-(4-(pyrazolo[1,5-a]pyrimidin-7-yl)cyclohexyl)ethyl)benzamide], the IC50 was below 250 nM.

`C[C@@H](NC(=O)c1ccc(-c2cncnc2)cc1)[C@H]1CC[C@@H](c2ccnc3ccc(F)cc32)CC1` [Example 234, N-((R)-1-((1s,4S)-4-(6-fluoroquinolin-4-yl)cyclohexyl)ethyl)-4-(pyrimidin-5-yl)benzamide]: the IC50 is below 50 nM.
